These results are taken from ChEMBL document CHEMBL4477252, “Optimization of microtubule affinity regulating kinase (MARK) inhibitors with improved physical properties” (Bioorg Med Chem Lett, 2016).

The target in series [1] is T1, Serine/threonine-protein kinase Nek2 (Homo sapiens, UniProt P51955).
T1 sequence (P51955 whole entry): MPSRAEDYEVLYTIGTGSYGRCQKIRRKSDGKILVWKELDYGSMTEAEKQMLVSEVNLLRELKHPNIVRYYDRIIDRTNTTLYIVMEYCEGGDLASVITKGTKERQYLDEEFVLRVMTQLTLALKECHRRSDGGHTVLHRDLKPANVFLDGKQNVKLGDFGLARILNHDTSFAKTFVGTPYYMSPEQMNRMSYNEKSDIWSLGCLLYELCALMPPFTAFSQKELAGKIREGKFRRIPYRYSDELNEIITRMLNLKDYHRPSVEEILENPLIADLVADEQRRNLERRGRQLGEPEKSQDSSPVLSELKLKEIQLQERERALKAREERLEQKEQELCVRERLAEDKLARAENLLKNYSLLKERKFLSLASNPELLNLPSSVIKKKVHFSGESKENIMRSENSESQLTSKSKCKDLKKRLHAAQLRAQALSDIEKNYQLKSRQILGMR
Briefly: Inhibition of full-length recombinant human His-tagged NEK2 expressed in baculovirus expression system by Z'-LYTE assay.

Series [2] deals with T2, Interleukin-1 receptor-associated kinase 4 (Homo sapiens, UniProt Q9NWZ3).
T2 sequence (Q9NWZ3 whole entry): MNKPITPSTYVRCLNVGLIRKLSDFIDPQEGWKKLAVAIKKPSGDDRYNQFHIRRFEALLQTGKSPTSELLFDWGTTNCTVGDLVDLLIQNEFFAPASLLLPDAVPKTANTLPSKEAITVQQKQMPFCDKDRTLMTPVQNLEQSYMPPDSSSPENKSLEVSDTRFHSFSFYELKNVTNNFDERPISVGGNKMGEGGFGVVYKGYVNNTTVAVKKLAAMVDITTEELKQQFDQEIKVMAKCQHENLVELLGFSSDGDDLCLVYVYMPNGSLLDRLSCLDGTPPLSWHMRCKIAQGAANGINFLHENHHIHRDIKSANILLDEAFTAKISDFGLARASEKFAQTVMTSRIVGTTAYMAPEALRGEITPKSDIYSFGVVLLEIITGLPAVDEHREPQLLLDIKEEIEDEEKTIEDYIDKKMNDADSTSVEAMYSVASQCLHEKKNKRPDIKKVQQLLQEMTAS
Briefly: Inhibition of full-length recombinant human His-tagged IRAK4 expressed in baculovirus expression system by Z'-LYTE assay.

Series [3] can be described thus: Volume of distribution in Sprague-Dawley rat at 1 mL/kg, iv administered through catheter or 5 mL/kg administered through gastric gavage measured after 24 hrs by LC-MS/MS analysis. It counts as ADME, organism-based. The note with it: in vivo.
Series [4] addresses Ribosomal protein S6 kinase beta-1 (Homo sapiens, UniProt P23443). Briefly: Inhibition of full-length recombinant human GST-tagged RPS6KB1 catalytic domain expressed in baculovirus expression system by Z'-LYTE assay.
Series [5] addresses Fibroblast growth factor receptor 2 (Homo sapiens, UniProt P21802). Briefly: Inhibition of recombinant human His-tagged cytoplasmic FGFR2 expressed in baculovirus expression system by Z'-LYTE assay.
The target in series [6] is T3, Serine/threonine-protein kinase TAO2 (Homo sapiens, UniProt Q9UL54).
T3 sequence (Q9UL54 whole entry): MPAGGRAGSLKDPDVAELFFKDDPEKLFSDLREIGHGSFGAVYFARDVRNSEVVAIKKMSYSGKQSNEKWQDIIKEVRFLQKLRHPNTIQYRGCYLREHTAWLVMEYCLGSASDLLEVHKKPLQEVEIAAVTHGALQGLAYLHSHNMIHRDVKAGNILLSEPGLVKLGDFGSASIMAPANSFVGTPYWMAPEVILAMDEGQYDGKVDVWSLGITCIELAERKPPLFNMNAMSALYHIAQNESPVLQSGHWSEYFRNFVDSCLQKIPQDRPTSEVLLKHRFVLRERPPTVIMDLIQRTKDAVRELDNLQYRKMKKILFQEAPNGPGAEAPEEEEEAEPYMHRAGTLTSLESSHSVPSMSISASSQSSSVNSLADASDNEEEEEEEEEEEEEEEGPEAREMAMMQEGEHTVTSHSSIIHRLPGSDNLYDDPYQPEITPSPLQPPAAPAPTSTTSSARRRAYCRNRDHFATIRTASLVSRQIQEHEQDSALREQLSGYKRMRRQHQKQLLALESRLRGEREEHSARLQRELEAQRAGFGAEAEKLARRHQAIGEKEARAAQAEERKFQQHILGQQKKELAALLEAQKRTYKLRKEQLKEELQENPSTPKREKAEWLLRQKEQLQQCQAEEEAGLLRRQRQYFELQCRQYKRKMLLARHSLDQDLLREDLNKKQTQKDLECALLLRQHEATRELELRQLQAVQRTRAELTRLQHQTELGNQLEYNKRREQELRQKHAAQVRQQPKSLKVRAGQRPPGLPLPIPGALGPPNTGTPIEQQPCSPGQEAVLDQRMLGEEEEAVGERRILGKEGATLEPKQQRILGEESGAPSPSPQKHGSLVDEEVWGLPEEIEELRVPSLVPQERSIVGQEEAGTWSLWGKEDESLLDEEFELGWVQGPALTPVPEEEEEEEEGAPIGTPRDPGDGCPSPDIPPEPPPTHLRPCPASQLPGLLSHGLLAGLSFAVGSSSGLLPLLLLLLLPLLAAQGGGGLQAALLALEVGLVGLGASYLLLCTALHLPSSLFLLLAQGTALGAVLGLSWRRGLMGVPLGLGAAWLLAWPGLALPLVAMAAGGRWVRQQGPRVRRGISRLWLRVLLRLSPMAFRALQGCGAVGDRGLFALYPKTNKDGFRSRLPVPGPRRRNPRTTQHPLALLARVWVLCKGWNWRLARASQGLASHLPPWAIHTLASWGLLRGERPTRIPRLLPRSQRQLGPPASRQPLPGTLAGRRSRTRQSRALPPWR
Briefly: Inhibition of recombinant human GST-tagged TAOK2 catalytic domain expressed in baculovirus expression system by Z'-LYTE assay.

Series [7] has as its target Glycogen synthase kinase-3 alpha (Homo sapiens, UniProt P49840). Briefly: Inhibition of full-length human GST-tagged GSK3A expressed in baculovirus expression system by Z'-LYTE assay.
Series [8] is described as follows: Inhibition of full-length recombinant human GST and His-tagged AMPK alpha2/beta1/gamma1 expressed in baculovirus expression system by LanthaScreen assay. A general note: In TR-FRET formats the signal depends on donor and acceptor labels being close together.

Each structure is given as a SMILES string. A value given as a limit tells only on which side of the number the result lay.

Fibroblast growth factor receptor 2, sequence (P21802 whole entry): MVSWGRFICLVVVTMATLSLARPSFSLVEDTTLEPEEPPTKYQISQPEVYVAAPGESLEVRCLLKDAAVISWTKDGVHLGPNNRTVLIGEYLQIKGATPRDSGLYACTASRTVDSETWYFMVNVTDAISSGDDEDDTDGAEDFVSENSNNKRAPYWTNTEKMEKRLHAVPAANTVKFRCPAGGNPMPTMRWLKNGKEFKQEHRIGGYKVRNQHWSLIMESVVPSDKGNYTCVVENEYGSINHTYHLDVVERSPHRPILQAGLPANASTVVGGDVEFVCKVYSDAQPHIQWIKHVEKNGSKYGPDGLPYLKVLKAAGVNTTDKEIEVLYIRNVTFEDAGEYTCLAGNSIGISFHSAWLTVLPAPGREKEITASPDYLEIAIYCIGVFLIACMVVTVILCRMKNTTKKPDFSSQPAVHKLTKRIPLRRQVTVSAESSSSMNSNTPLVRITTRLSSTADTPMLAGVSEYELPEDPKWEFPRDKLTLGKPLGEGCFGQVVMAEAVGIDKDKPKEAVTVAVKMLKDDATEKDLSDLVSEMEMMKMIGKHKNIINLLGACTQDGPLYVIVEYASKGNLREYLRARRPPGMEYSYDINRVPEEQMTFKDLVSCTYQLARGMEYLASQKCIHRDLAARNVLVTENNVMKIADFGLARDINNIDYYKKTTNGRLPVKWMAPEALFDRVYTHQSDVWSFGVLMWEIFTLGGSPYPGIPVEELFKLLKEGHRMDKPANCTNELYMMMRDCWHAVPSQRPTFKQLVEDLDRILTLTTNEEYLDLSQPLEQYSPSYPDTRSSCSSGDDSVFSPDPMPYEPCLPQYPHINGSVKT
Glycogen synthase kinase-3 alpha, sequence (P49840 whole entry): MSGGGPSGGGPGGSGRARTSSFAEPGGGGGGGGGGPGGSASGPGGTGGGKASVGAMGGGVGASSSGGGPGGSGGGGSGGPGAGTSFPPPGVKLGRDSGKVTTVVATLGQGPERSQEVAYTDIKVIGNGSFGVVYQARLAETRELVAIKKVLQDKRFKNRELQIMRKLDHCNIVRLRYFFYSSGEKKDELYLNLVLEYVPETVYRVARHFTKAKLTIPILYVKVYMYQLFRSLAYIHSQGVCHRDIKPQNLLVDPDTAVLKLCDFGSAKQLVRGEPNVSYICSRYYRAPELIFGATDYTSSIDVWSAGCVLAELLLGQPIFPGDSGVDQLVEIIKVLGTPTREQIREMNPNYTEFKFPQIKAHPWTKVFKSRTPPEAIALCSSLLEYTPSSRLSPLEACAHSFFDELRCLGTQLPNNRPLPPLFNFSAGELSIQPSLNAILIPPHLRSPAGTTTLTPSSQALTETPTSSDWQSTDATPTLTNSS
Ribosomal protein S6 kinase beta-1, sequence (P23443 whole entry, the tested form may be a part): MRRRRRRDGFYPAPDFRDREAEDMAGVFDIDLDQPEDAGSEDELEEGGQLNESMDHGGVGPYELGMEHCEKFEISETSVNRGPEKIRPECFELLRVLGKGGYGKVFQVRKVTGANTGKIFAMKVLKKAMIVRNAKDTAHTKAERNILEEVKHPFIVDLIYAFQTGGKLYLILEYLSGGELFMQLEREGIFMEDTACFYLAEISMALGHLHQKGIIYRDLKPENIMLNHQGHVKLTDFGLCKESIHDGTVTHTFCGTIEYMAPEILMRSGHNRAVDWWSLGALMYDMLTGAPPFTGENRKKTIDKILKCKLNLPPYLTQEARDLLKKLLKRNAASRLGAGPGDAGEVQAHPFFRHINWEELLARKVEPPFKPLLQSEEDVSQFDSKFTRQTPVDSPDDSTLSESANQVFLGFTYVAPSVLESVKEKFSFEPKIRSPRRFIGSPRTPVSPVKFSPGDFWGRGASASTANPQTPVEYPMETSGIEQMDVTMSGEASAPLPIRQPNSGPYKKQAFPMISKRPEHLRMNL

With `Cn1cc(-c2cnc3c(-c4csc(C(=O)NCC(F)(F)F)c4)cnn3c2)cn1`, the IC50 (usually the concentration needed to halve the response being measured) in series [1] was above 100000 nM; in series [2] it was 64 nM; in series [4], 110 nM; in series [5] it was 170 nM; in series [6] it was 25000 nM; in series [7], 130 nM. Further, in series [8], the IC50 came to 68 nM. Also, in series [3], the Vd came to 0.77 L/kg.

For `Cc1sc(C(=O)N[C@@H]2[C@H](N)CCCC2(F)F)cc1-c1cnn2cc(Cl)cnc12`, the IC50 in series [1] was determined as 13000 nM; in series [2], 3000 nM; in series [4], 1500 nM; in series [5] it was 17000 nM; in series [6] it was 11000 nM; in series [7] it was 110 nM. The IC50 in series [8] came to 290 nM. Also, the Vd in series [3] amounted to 1.3 L/kg.

In the case of `O=C(NCC(F)(F)F)c1cc(-c2cnn3cc(-c4ccc(OCCN5CCCCC5)cc4)cnc23)cs1`, the IC50 in series [1] stood at 16000 nM; in series [2], 210 nM; in series [4], 88 nM; in series [5], 70 nM; in series [6] it was 2700 nM; in series [7] it was 360 nM. Further, the IC50 in series [8] came to 25 nM. Besides, in series [3], the Vd turned out to be 14.2 L/kg.

Consider `Cn1cc(-c2cnc3c(-c4csc(C(=O)N[C@@H]5CCCC[C@@H]5N)c4)cnn3c2)cn1` (racemic), for which the IC50 in series [1] worked out at 950 nM; in series [2], 23 nM; in series [4] it was 8 nM; in series [5], 11 nM; in series [6], 420 nM; in series [7], 42 nM. Also, the Vd in series [3] worked out at 29 L/kg.
